Marks after values point to notes of the source that are not given here.
Key:
[1] = molecular target: T1, human blood coagulation factor XIa (Homo sapiens, UniProt P03951); experiment: Inhibitory activity on human blood coagulation factor XIa (chromogenic substrate S-2366); assay type: biochemical; conditions: chromogenic substrate S-2366, 37° C.; read-out: FXIa inhibitory activity IC50
T1 construct: human blood coagulation factor XIa (Haematologic Technologies Inc.); purchased Haematologic Technologies Inc
Method: Inhibitory activities of the compound of the present invention on human blood coagulation factor XIa, factor VIIa, factor IXa, factor Xa, factor XIIa, plasma kallikrein and thrombin were evaluated. A chromogenic substrate solution was added to each of enzyme solutions, the absorbance at 405 nm was measured continuously at 37° C. for 5 minutes at intervals of 15 seconds, and the decomposition rate of each of substrates (mOD/min) was calculated. The half maximal (50%) inhibitory concentration (IC50) of the compound of the present invention on each of the enzymes was calculated by linear regression by using least-squares method from the concentration of the compound of the present invention which was converted in terms of natural logarithm and the rate of enzyme inhibition calculated according to the following equation.
The rate of enzyme inhibition (%) of the compound of the present invention was calculated by using the following equation: Rate of enzyme inhibition (%)=100×{(Cont(e)−BL(e))−(Comp(e)−BL(e))/(Cont(e)−BL(e))}
Cont (e): Decomposition rate of substrate (mOD/min) when enzyme solution and substrate solution were added to physiological saline containing 5% dimethyl sulfoxide
Comp (e): Decomposition rate of substrate (mOD/min) when enzyme solution and substrate solution were added to physiological saline containing 5% dimethyl sulfoxide and the compound of the present invention
The inhibitory activity on human blood coagulation factor XIa (Haematologic Technologies Inc.) was measured by using the enzyme solution adjusted to 0.1 U/mL by a buffer solution containing 300 mM of NaCl, 10 mM of KCl, 2 mg/mL of PEG 6000 and 100 mM of HEPES-NaOH (pH 7.4) as well as S-2366 (pyroglu-Pro-Arg-pNA, CHROMOGENIX) adjusted to 1 mM by distilled water.

[2] = system: standard human plasma; experiment: Activated partial thromboplastin time (APTT) in standard human plasma; assay type: biochemical; conditions: concentration required for doubling the coagulation time vs vehicle (1% DMSO)
Method: Activated partial thromboplastin time (APTT) and prothrombin time (PT) were measured by using a fully automatic device for measuring blood coagulation (CA-1500, Sysmex Corporation). On APTT or PT measurement, standard human plasma for the blood coagulation tests (Siemens Healthcare Diagnostics GmbH) was mixed with a diluted solution of the compound of the present invention, and thereafter, APTT reagent (Siemens Healthcare Diagnostics GmbH) and 0.02 M of calcium chloride or PT reagent (Siemens Healthcare Diagnostics GmbH) were automatically added to the mixture in order to initiate clot formation. The anticoagulation activity (APTT×2 or PT×2) of the compound of the present invention was expressed as a concentration required for doubling the coagulation time in the vehicle (1% DMSO) group. APTT×2 or PT×2 was determined by plotting the concentration of the compound of the present invention against a twofold increase in the coagulation time.

[3] = Pharmacokinetic (PK) tests in rats; assay type: in vivo; conditions: for AUC / concentration at 8 h: rat, plasma; for AUC: po, fasted male Crj:CD(SD) rats; for APTT × 2 maintaining time: 1 mg/kg orally, period when plasma concentration exceeded APTT×2; for concentration at 8 h: male, Crj:CD(SD), oral, read-out: Plasma concentration C8h; for C8h/APTT × 2: C8h divided by APTT×2
Method: The compound of the present invention was administered to fasted male Crj:CD(SD) rats by intravenous injection as a single intravenous dose of 0.1 mg/kg (vehicle: 20% HP-β-CD solution) and by forced oral dosage as a dose of 1 mg/kg per os (vehicle: 0.5% methylcellulose solution). Blood samples were collected from cervical vein into heparinized syringes at 0.08, 0.25, 0.5, 1, 3 or 7 hours after administration by intravenous injection or 0.08, 0.25, 0.5, 1, 2, 4, 6, 8 or 24 hours after oral administration. Plasma was obtained by centrifugation, and plasma was stored at −20° C. until measurement of plasma concentration.
In order to measure the plasma concentration of the compound of the present invention, the plasma sample was subjected to deproteinization by using acetonitrile, was filtrated by using a filter, and thereafter, was diluted with purified water, and then was analyzed by LC/MS/MS. A column for analysis (Shim-pack XR-ODSII, 2.0 mm×75 mm, 2.2 μm) and mobile phases (0.1% formic acid in water and 0.1% formic acid in acetonitrile, flow rate: 0.5 mL/min) were used. The system was used by detection of cations in the Multiple Reaction Monitoring (MRM) mode.
The area under the blood concentration versus time curve (AUC) and the bioavailability (BA) of the compound of the present invention were calculated. In addition, as indices of the maintaining time of the anticoagulation activity in the case of oral administration, AUC/APTT×2, which is obtained by dividing AUC by APTT×2, and C8h/APTT×2, which is obtained by dividing C8h (the plasma concentration at 8 hours after administration) by APTT×2, were calculated.
In addition, the period of time when the compound concentration in plasma of the compound of the present invention exceeded APTT×2 (the APTT×2 maintaining time) was calculated from the change in the compound concentration in plasma in the case when the compound of the present invention was orally administered at a dose of 1 mg/kg. The longer the APTT×2 maintaining time is, the longer the period of time is when the anticoagulation activity is maintained after oral administration.

[4] = rats, 1 mg/kg per os, 8 hours after administration

T1 sequence (P03951 388-625 limits assumed): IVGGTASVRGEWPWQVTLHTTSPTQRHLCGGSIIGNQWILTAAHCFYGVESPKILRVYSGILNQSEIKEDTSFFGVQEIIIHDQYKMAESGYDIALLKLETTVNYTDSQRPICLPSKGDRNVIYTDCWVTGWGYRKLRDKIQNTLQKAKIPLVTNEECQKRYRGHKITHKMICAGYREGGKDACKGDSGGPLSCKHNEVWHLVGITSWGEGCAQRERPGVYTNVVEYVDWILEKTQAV
T1 sequence (P03951 19-387 partner limits assumed): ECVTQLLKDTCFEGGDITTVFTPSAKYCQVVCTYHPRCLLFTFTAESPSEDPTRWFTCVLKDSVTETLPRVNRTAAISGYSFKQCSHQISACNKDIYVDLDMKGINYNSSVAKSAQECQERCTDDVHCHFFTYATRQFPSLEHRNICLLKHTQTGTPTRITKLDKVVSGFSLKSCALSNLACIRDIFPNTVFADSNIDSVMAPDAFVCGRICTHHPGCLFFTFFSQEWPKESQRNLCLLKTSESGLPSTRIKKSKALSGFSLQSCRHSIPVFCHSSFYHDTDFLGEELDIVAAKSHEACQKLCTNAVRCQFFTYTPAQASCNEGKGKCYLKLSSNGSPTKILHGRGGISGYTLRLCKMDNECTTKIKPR

IC50 [1]	AUC ([3]; 1 mg/kg per os)	APTT × 2 maintaining time ([3]; rats)	Plasma concentration C8h [3, 4]	concentration at 8 h [3, 4]	C8h/APTT × 2 ([3]; rats, 1 mg/kg per os)	SMILES	APTT × [2]
19 nM	0.056 µM·h	0* h	BLQ*			Nc1ccc(-c2ncc([C@@H]3CCc4cc(-c5cc(Cl)ccc5-n5cnnn5)cc(=O)n43)[nH]2)c(F)n1 [Comparative Example 2 (1), (3S)-3-[2-(6-amino-2-fluoro-3-pyridinyl)-1H-imidazol-5-yl]-7-[5-chloro-2-(1H-tetrazol-1-yl)phenyl]-2,3-dihydro-5(1H)-indolizinone]	4.0 µM
5.4 nM	45 µM·h	>8 h		2500 nM	1.4	N#Cc1cn(-c2ccc(Cl)cc2-c2cc3n(c(=O)c2)[C@H](c2nc(F)c(-c4ccc(N)cc4)[nH]2)CC3)nn1 [Example 4 (10), 1-(2-{(3S)-3-[5-(4-aminophenyl)-4-fluoro-1H-imidazol-2-yl]-5-oxo-1,2,3,5-tetrahydro-7-indolizinyl}-4-chlorophenyl)-1H-1,2,3-triazole-4-carbonitrile]	1.8 µM
4.8 nM	0.69 µM·h	0* h		26 nM	0.014	Nc1ccc(-c2[nH]c([C@@H]3CCc4cc(-c5cc(Cl)ccc5-n5cnnn5)cc(=O)n43)nc2Cl)c(F)n1 [Comparative Example 1 (2), (3S)-3-[5-(6-amino-2-fluoro-3-pyridinyl)-4-chloro-1H-imidazol-2-yl]-7-[5-chloro-2-(1H-tetrazol-1-yl)phenyl]-2,3-dihydro-5(1H)-indolizinone]	1.8 µM
1.4 nM	1.7 µM·h	<1 h		81 nM	0.15	Nc1ccc(-c2[nH]c([C@@H]3CCc4cc(-c5cc(Cl)ccc5-n5cnnn5)cc(=O)n43)nc2F)cn1 [Comparative Example 1 (3), (3S)-3-[5-(6-amino-3-pyridinyl)-4-fluoro-1H-imidazol-2-yl]-7-[5-chloro-2-(1H-tetrazol-1-yl)phenyl]-2,3-dihydro-5(1H)-indolizinone]	0.55 µM
1.7 nM	15 µM·h	>8 h		1000 nM	2.1	Nc1ccc(-c2nc(F)c([C@@H]3CCc4cc(-c5cc(Cl)ccc5-n5cnnn5)cc(=O)n43)[nH]2)c(F)n1 [Example 2 (10), (3S)-3-[2-(6-Amino-2-Fluoro-3-Pyridinyl)-4-Fluoro-1H-Imidazol-5-Yl]-7-[5-Chloro-2-(1H-Tetrazol-1-Yl)Phenyl]-2,3-Dihydro-5(1H)-Indolizinone]	0.49 µM
1.9 nM	28 µM·h	>8 h		1600 nM	3.4	Nc1ccc(-c2nc(F)c([C@@H]3CCc4nc(-c5cc(Cl)ccc5-n5cnnn5)cc(=O)n43)[nH]2)c(F)n1 [Example 3 (4), (6S)-6-[2-(6-Amino-2-Fluoro-3-Pyridinyl)-4-Fluoro-1H-Imidazol-5-Yl]-2-[5-Chloro-2-(1H-Tetrazol-1-Yl)Phenyl]-7,8-Dihydropyrrolo[1,2-a]Pyrimidin-4(6H)-One]	0.47 µM
	4.7 µM·h	0* h		170 nM	0.15	Nc1ccc(-c2cnc([C@@H]3CCc4cc(-c5cc(Cl)ccc5-n5cnnn5)cc(=O)n43)[nH]2)c(F)n1 [Comparative Example 1 (1), (3S)-3-[5-(6-amino-2-fluoro-3-pyridinyl)-1H-imidazol-2-yl]-7-[5-chloro-2-(1H-tetrazol-1-yl)phenyl]-2,3-dihydro-5(1H)-indolizinone]	1.2 µM
2.7 nM	8.4 µM·h	0* h		350 nM	0.18	N#Cc1cn(-c2ccc(Cl)cc2-c2cc3n(c(=O)c2)[C@H](c2nc(Cl)c(-c4ccc(N)nc4)[nH]2)CC3)nn1 [Comparative Example 4, 1-(2-{(3S)-3-[5-(6-amino-3-pyridinyl)-4-chloro-1H-imidazol-2-yl]-5-oxo-1,2,3,5-tetrahydro-7-indolizinyl}-4-chlorophenyl)-1H-1,2,3-triazole-4-carbonitrile]	2.0 µM
1.7 nM	33 µM·h	>8 h		880 nM	1.1	Nc1ccc(-c2[nH]c([C@@H]3CCc4cc(-c5cc(Cl)ccc5-n5cnnn5)cc(=O)n43)nc2F)c(F)n1 [Example 1 (6), (3S)-3-[5-(6-Amino-2-Fluoro-3-Pyridinyl)-4-Fluoro-1H-Imidazol-2-Yl]-7-[5-Chloro-2-(1H-Tetrazol-1-Yl)Phenyl]-2,3-Dihydro-5(1H)-Indolizinone]	0.80 µM
1.6 nM	1.6 µM·h	<2 h		73 nM	0.34	Nc1ccc(-c2nc(F)c([C@@H]3CCc4cc(-c5cc(Cl)ccc5-n5cnnn5)cc(=O)n43)[nH]2)cn1 [Comparative Example 2 (5), (3S)-3-[2-(6-Amino-3-Pyridinyl)-4-Fluoro-1H-Imidazol-5-Yl]-7-[5-Chloro-2-(1H-Tetrazol-1-Yl)Phenyl]-2,3-Dihydro-5(1H)-Indolizinone]	0.21 µM
11 nM	1.4 µM·h	0* h		27 nM	0.0073	Nc1ccc(-c2[nH]c([C@@H]3CCc4nc(-c5cc(Cl)ccc5-n5cnnn5)cc(=O)n43)nc2Cl)c(F)n1 [Comparative Example 3 (2), (6S)-6-[5-(6-amino-2-fluoro-3-pyridinyl)-4-chloro-1H-imidazol-2-yl]-2-[5-chloro-2-(1H-tetrazol-1-yl)phenyl]-7,8-dihydropyrrolo[1,2-a]pyrimidin-4(6H)-one]	3.7 µM
1.6 nM	4.2 µM·h	<2 h		180 nM	0.29	COC(=O)Nc1ccc(-c2nc(Cl)c([C@@H]3CCc4nc(-c5cc(Cl)ccc5-n5cnnn5)cc(=O)n43)[nH]2)cc1 [Comparative Example 3 (1), methyl[4-(4-chloro-5-{(6S)-2-[5-chloro-2-(1H-tetrazol-1-yl)phenyl]-4-oxo-4,6,7,8-tetrahydropyrrolo[1,2-a]pyrimidin-6-yl}-1H-imidazol-2-yl)phenyl]carbamate]	0.64 µM
